Reference: BindingDB's records for doi:10.1016/s0960-894x(00)00485-6 (Axys Pharmaceuticals, 2001)

Experiment: Dissociation constant of compound was evaluated from its IC50 against tryptase at different concentrations

Kd: 0.1 nM
SMILES: NC(N)=Nc1ccc(CNC(=O)N2CCN(C(=O)O[C@@H]3CO[C@H]4[C@@H]3OC[C@H]4OC(=O)N3CCN(C(=O)NCc4ccc(N=C(N)N)cc4)CC3)CC2)cc1 [Derivative of APC-2059]
